According to patent US20040156782A1, “Methods of using indocyanine green (ICG) dye” (Akorn, Inc., priority 2003, published 2004):

Experiment: HPLC stability of reconstituted aqueous ICG composition (% label claim over time)
Assay type: physicochemical
Description: The HPLC testing utilized a Supelcosil LC-18-DB, 3 μm, 4.6×150 mm HPLC column and a supelcosil LC-18-DB, 3 μm, 4.6×33 mm guard column. The mobile phase, which consists of 0.1% phosphoric acid (Solvent A) and 100% acetonitrile (Solvent B), was fed to the columns at a flow rate of 1 ml/min, with the mobile phase composition being varied as follows:
An ICG standard was then prepared by dissolving approximately 5.5 mg of ICG (IC-GREEN™) in 10.0 ml of a diluent comprising acetonitrile and water in a 1:1 ratio. The ICG samples to be measured (IC-GREEN™) were then prepared by diluting each sample in the same diluent (1:1 acetonitrile to water) such that the estimated concentration of ICG in each sample was approximately 0.5 mg/ml. The dilution factor was determined by dividing the final volume of the sample by the volume of the ICG sample aliquot initially added. Then, five 10.0 μL quantities of the ICG standard were injected into the HPLC column and the mean peak area was determined. Next, a series of 10.0 μL injections of the samples was completed, and the mean peak area for each sample was determined. The ICG concentration for each sample was then calculated using the following formula:
[ICG in mg/ml]=[STD](ASX/ASTD)(DF)
where [STD] is the ICG concentration of the standard, ASX is the mean peak area of the sample, ASTD is the mean peak area of the standard, and DF is the dilution factor. The relative concentration of ICG present in the sample (wt. % label claim) was then determined by dividing the concentration of the sample by the initial concentration upon dissolution, then multiplying the result by one hundred.

CC1(C)C(/C=C/C=C/C=C/C=C2\N(CCCCS(=O)(=O)O)c3ccc4ccccc4c3C2(C)C)=[N+](CCCCS(=O)(=O)[O-])c2ccc3ccccc3c21 [ICG, Indocyanine green]
stability of aqueous compositions having relatively high ICG concentrations relative to relatively low ICG concentrations: more stable | time after reconstitution at which ICG content corresponds to 95 wt. % based on the label claim (5 mg/ml reconstituted aqueous ICG composition): about 18 hours | relative concentration (% label claim) of ICG in aqueous ICG composition (for more than ten hours after the lyophilized ICG is reconstituted): above 90 wt. %
